As usually defined, the IC50 is the concentration that gives 50% inhibition. Broadly, the Ki is the equilibrium dissociation constant of an inhibitor or competing ligand from its target.

Data set [1] deals with HCT-116. Nature of the data set: Antiproliferative activity against human HCT-116 cells overexpressing MDM2 assessed as cell growth inhibition incubated for 72 hrs by CCK-8 assay. The settings on record: HCT-116, 72 h. The data set is classed as functional, cell-based. For orientation: Tetrazolium dyes change colour on reduction, which living cells bring about.
Data set [2] relates to HCT-116. Nature of the data set: Inhibition of colony formation in human HCT-116 cells incubated at 0.6 uM for 8 to 15 days measured by crystal violet staining based microscopic analysis. The following applies: time 8-15 day. Type of data set: functional, cell-based.
For data set [3], the system named is HCT-116. Nature of the data set: Inhibition of cell migration in human HCT-116 cells measured using transwell chamber by crystal violet staining based microscopic analysis. Type of data set: functional. The following applies: dose 0.2-0.6 µM.
The test system of data set [4] is HCT-116. Nature of the data set: Inhibition of cell invasion in human HCT-116 cells measured using transwell chamber by crystal violet staining based microscopic analysis. The data set is classed as functional. The settings on record: dose 0.2-0.6 µM.
For another data set, the target named is T1, Protein Mdm4 (Homo sapiens, UniProt O15151).
T1 sequence (O15151 whole entry): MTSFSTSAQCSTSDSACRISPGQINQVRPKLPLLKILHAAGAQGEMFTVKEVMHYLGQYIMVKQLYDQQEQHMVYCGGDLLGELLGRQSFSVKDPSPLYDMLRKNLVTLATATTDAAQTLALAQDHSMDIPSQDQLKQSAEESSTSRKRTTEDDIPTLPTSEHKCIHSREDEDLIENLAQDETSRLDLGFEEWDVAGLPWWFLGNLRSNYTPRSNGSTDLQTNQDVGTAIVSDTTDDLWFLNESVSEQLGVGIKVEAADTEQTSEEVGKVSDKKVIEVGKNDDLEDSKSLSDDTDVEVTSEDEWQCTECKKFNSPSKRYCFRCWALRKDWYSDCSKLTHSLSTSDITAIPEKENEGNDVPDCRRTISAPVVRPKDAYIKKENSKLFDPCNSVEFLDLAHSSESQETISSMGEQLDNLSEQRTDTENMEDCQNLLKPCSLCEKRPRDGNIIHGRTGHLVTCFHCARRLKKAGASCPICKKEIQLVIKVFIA
Nature of the data set: Binding affinity to MDMX (1 to 118 residues) (unknown origin) assessed as inhibition constant incubated for 1 hr measured by fluorescence polarization assay. On the technique in general: Polarisation of emitted light reports the rotation of a fluorescent probe.

Data set [5] relates to SH-SY5Y. Nature of the data set: Inhibition of cell invasion in human SH-SY5Y cells measured using transwell chamber by crystal violet staining based microscopic analysis. The settings on record: dose 0.2-0.6 µM. The data set is classed as functional.
The nature of data set [6]: Cytotoxicity against human BEAS-2B cells incubated for 72 hrs by CCK-8 assay. Type of data set: toxicity, cell-based.
The nature of data set [7]: Cytotoxicity against human LO2 cells incubated for 72 hrs by CCK-8 assay. Type of data set: toxicity, cell-based, L02.
The test system of data set [8] is SH-SY5Y. Briefly: Inhibition of cell migration in human SH-SY5Y cells measured using transwell chamber by crystal violet staining based microscopic analysis. The following applies: dose 0.2-0.6 µM. Type of data set: functional.
Data set [9] has as its target E3 ubiquitin-protein ligase Mdm2 (Homo sapiens, UniProt Q00987). Nature of the data set: Binding affinity to MDM2 (1 to 118 residues) (unknown origin) assessed as inhibition constant incubated for 1 hr measured by fluorescence polarization assay.
The test system of the next data set is SJSA-1. Briefly: Antiproliferative activity against human SJSA-1 cells overexpressing MDM2 assessed as cell growth inhibition incubated for 72 hrs by CCK-8 assay. Type of data set: functional, cell-based. The following applies: SJSA-1, 72 h.
In data set [10] the test system is SH-SY5Y. Nature of the data set: Inhibition of colony formation in human SH-SY5Y cells incubated at 0.6 uM for 8 to 15 days measured by crystal violet staining based microscopic analysis. The settings on record: time 8-15 day. Type of data set: functional, cell-based.
Data set [11] deals with SH-SY5Y. Briefly: Antiproliferative activity against human SH-SY5Y cells overexpressing MDMX assessed as cell growth inhibition incubated for 72 hrs by CCK-8 assay. Type of data set: functional, cell-based.
A short description of data set [12]: Antiproliferative activity against human HCT116-p53-null cells overexpressing MDMX assessed as cell growth inhibition incubated for 72 hrs by CCK-8 assay. The data set is classed as functional, cell-based.

Molecules are shown by their SMILES. The source made the active and inactive calls. The rule behind the calls is not given here.

Chain of E3 ubiquitin-protein ligase Mdm2 (Q00987 whole entry, the tested form may be a part): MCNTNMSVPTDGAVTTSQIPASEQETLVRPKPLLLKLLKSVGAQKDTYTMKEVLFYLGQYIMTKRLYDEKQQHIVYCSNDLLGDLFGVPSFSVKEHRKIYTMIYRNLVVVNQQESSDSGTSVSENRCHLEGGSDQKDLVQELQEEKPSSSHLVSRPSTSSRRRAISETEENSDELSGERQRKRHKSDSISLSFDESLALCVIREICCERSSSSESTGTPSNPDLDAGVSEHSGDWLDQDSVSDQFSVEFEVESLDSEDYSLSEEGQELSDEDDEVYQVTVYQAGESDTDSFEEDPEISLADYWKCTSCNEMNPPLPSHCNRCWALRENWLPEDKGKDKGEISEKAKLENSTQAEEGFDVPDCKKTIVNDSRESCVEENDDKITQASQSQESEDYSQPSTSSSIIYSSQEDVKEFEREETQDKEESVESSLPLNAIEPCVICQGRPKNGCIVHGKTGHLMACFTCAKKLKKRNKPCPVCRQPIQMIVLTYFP

On to `CN(C)C1CCN(C(=O)CCC(=O)N(c2ccc(Cl)cc2)C(C(=O)c2ccc(Cl)cc2)c2ccc(F)cc2Cl)CC1` (centres undefined), for which the concentration for half-maximal inhibition (IC50) in the data set on HCT-116 [1] is 0.72 µM; in the data set with SJSA-1, 0.64 µM; in the data set with SH-SY5Y [11] it was 0.69 µM; in [12], 13.6 µM. Also, the inhibition entry with HCT-116 [2] and in the data set with SH-SY5Y [10] was “Active” in each case. The inhibition entry in the data set on HCT-116 [3], in the data set on HCT-116 [4], with SH-SY5Y [5] and with SH-SY5Y [8] was “Dose-Dependent Effect” each time. Also, the figures for the Ki (at Protein Mdm4; in data set [9]) were 3.46 µM and 280 nM, respectively. The IC50 at 72 h in data set [6] was determined as 16.3 µM; in [7], 12.7 µM.
In the case of `CCN1CCN(C(=O)CCC(=O)N(c2ccc(Cl)cc2)C(C(=O)c2ccc(Cl)cc2)c2ccc(F)cc2Cl)CC1` (centres undefined), the IC50 with HCT-116 [1] worked out at 6.24 µM; in the data set on SJSA-1, 5.93 µM; with SH-SY5Y [11], 5.82 µM; in [12] it was 20.9 µM. Moreover, the Ki came to 9.37 µM on Protein Mdm4 and 690 nM in [9].
For `O=C(O)c1ccc(C(=O)N(c2ccc(Cl)cc2)C(C(=O)c2ccc(Cl)cc2)c2ccc(F)cc2Cl)cc1` (centres undefined), the IC50 with HCT-116 [1] came out at 2.26 µM; in the data set on SJSA-1, 1.95 µM; in the data set with SH-SY5Y [11] it was 1.03 µM; in data set [12], 16.8 µM. In addition, the Ki at Protein Mdm4 came out at 4.22 µM; in data set [9], 320 nM.
As for `COC(=O)c1ccc(NC(=O)CCC(=O)N(c2ccc(Cl)cc2)C(C(=O)c2ccc(Cl)cc2)c2ccc(F)cc2Cl)cc1` (centres undefined), the IC50 with HCT-116 [1] was found to be 14 µM; with SJSA-1, 13.9 µM; in the data set on SH-SY5Y [11], 13 µM; in data set [12], 23.1 µM. Further, the inhibition constant (Ki) came out at 29.1 µM at Protein Mdm4 and 960 nM in data set [9].
For `O=C(CCC(=O)N(c1ccc(Cl)cc1)C(C(=O)c1ccc(Cl)cc1)c1ccc(F)cc1Cl)NCCN1CCOCC1` (centres undefined), the IC50 was 7.69 µM in the data set on HCT-116 [1], 6.74 µM with SJSA-1, 5.44 µM with SH-SY5Y [11] and 28.4 µM in [12]. The Ki at Protein Mdm4 came out at 13 µM; in [9] it was 560 nM.
`COc1ccc(S(=O)(=O)N(c2ccc(Cl)cc2)C(C(=O)c2ccc(Cl)cc2)c2ccc(F)cc2Cl)cc1` (centres undefined): the IC50 in the data set on HCT-116 [1] was 12 µM; in the data set on SJSA-1 it was 10.4 µM; in the data set with SH-SY5Y [11] it was 9.64 µM; in data set [12], 30.5 µM. Further, the Ki on Protein Mdm4 was found to be 15.6 µM; in data set [9] it was 650 nM.
